Legend:
T cells [1] = assay: TRAC LNP editing and GFP insertion in activated T cells with DNA-PK inhibitors, flow cytometry; settings: GFP positive of the CD3 negative T cells, day 5 post-edit
T cells [2] = assay: Insertion percent in T cells of Example 17; assay type: cell-based, human; settings: T cells from Example 12; FIG. 9B
Description: (§1) On day 8 post-editing, T cells from Example 12 from the untreated, unedited, Compound 3 and Compound 4 guides samples were collected, spun down and the pellets were directly used as input material for gDNA isolation using “Zymo Quick DNA/RNA Mag Beads Kit” (Zymo Cat. R2131). The UnIT structural variant characterization assay was applied to these gDNA samples. High molecular weight genomic DNA is simultaneously fragmented and sequence-tagged (‘tagmented’) with the Tn5 transposase and an adapter with a partial Illumina P5 sequence and a 12 bp unique molecular identifier (UMI). Two sequential PCRs using a primer to P5 and hemi-nested gene specific primers (GSP) imparting the Illumina the P7 sequence to create two Illumina compatible NGS libraries per sample (Illumina, Ref 15033624). Sequencing across both directions of the CRISPR/Cas9 targeted cut site with the two libraries allows the inference and quantification of structural variants in DNA repair outcomes after genome editing. If the two fragments were aligned to different chromosomes, the SV was classified as an “inter-chromosomal translocation.” The magnitude of structural variation was shown in FIG. 9A and Table 18.

T cells [3] = assay: SpyCas9 TRAC editing (indel) in T cells by NGS with or without Compound 4; assay type: cell-based, human; settings: day 4 NGS
Protocol: Upon thaw, T cells were plated at a density of 1.0×10^6 cells/mL in T cell growth media (TCGM) composed of CTS OpTmizer T Cell Expansion SFM and T Cell Expansion Supplement (ThermoFisher Cat. A1048501), 5% human AB serum (GeminiBio, Cat. 100-512) 1× Penicillin-Streptomycin, 1× Glutamax, 10 mM HEPES, 200 U/mL recombinant human interleukin-2 (Peprotech, Cat. 200-02), 5 ng/ml recombinant human interleukin 7 (Peprotech, Cat. 200-07), and 5 ng/mL recombinant human interleukin 15 (Peprotech, Cat. 200-15). T cells were rested in this media for 24 hours, at which time they were activated with T Cell TransAct™, human reagent (Miltenyi, Cat. 130-111-160) added at a 1:100 ratio by volume.
(§2) 48 hours post-activation, T cells were harvested, centrifuged at 500 g for 5 min, and resuspended at a concentration of 6.41×10^5 T cells/mL in T cell plating media (TCPM): a serum-free version of TCGM containing 400 U/mL recombinant human interleukin-2 (Peprotech, Cat. 200-02), 10 ng/mL recombinant human interleukin 7 (Peprotech, Cat. 200-07), and 10 ng/mL recombinant human interleukin 15 (Peprotech, Cat. 200-15). 50 μL of T cells in TCPM (3.2×10^4 T cells) were added per well to be treated in flat-bottom 96-well plates.
(§3) LNPs were generated as described in Example 1 at a ratio of 50/38.5/10/1.5 (Lipid A/cholesterol/DSPC/PEG2k-DMG).
(§4) Mix “A” was serially diluted 1:2 in TCTM, and mixed 1:1 by volume with mix “B”. 25 μL of the resulting solution was added to 3.2×10^4 T cells in 96-well plates.
(§5) Next, a repair template in the form of an adeno-associated virus (AAV) encoding the HD3 TCR (SEQ ID NO: 18 was diluted in TCTM to 3.84×10^11 genome copies/mL in the presence or absence of Compound 4 diluted to 2 μM. 25 μL of the resulting solution was added to T cells that were treated with LNPs in the prior step. To enable editing assessments by NGS without the interference of repair templates, an arm of this experiment received 25 μL of TCTM with or without Compound 4 diluted to 2 μM in the absence of AAVs.
(§6) Following the addition of LNPs, repair templates and Compound 4, T cells were incubated at 37° C. for 48 hours, at which time T cells were centrifuged at 500 g for 5 min, resuspended in 200 μL of TCGM and returned to the incubator.

TRAC = settings: human
NK cells = assay: Percent editing at AAVS1 in NK cells by NGS; assay type: cell-based, human
Protocol: Genomic DNA was extracted using QuickExtract™ DNA Extraction Solution (Lucigen, Cat. QE09050) according to manufacturer's protocol.
To quantitatively determine the efficiency of editing at the target location in the genome, next generation sequencing was utilized to identify the presence of insertions and deletions introduced by gene editing. […] Primer sequence design was done as is standard in the field.
Additional PCR was performed according to the manufacturer's protocols (Illumina) to add chemistry for sequencing. The amplicons were sequenced on an Illumina MiSeq instrument. The reads were aligned to the human (e.g., hg38) reference genome after eliminating those having low quality scores. The resulting files containing the reads were mapped to the reference genome (BAM files), where reads that overlapped the target region of interest were selected and the number of wild-type reads versus the number of reads which contain an insertion or deletion (“indel”) was calculated.
The editing percentage (e.g., the “editing efficiency” or “percent editing”) is defined as the total number of sequence reads with insertions or deletions (“indels”) over the total number of sequence reads, including wild type.
NK cells were assessed for the impact of DNA protein kinase inhibitors (DNA-PKI) on indel and insertion rates. […]

TRBC = assay: Off-target site validation, rhAmpSeq; settings: gRNA G016239 targeting TRBC; of 92 off-target sites; with the named DNA-PKI or none
T cells [4] = assay: HD3 TCR insertion within TRAC in T cells, flow cytometry; assay type: cell-based, human; settings: Spy Cas9 + Compound 4, HD3 TCR AAV, day 7
Protocol: as §2, §3, §4, §5, §6
Also on day 4 post-treatment, cells that received AAV templates were mixed and sub-cultured at a 1:4 ratio (v/v) in TCGM. On day 7 post-treatment, cells that received AAV templates were evaluated by flow cytometry.
On day 7 post-LNP treatment, 50 μL of cells were transferred to U-bottom 96-well plates and spun down for 5 min at 500 g. The supernatant was discarded, cells were resuspended in 100 μL of FACS buffer containing Viakrome 808 (Beckman C., Cat. C36628) (1:100), PC5.5 anti-CD3 (Biolegend, Cat. 317336) (1:200), BV421 anti-CD4 (Biolegend, Cat. 317434) (1:100), BV785 anti-CD8 (Biolegend, Cat. 301046) (1:100), and anti-V07.2 (Beckman C., IM3604) (1:50) and stained for 30 min at 4° C. in the dark. Cells were washed once with 200 μL of FACS buffer, resuspended in 100 μL of FACS buffer and processed on a Cytoflex LX flow cytometer.

T cells [5] = assay: Off-target structural variation by UnIT; assay type: cell-based, human; settings: T cells from Example 12, day 8 post-editing; TRAC sgRNA G013006
Description: as §1

Cc1cc2ncnn2cc1Nc1ncc2c(n1)n(C1CCC3(CC1)CC3)c(=O)n2C [Compound 4, 7-methyl-2-((7-methyl-[1,2,4]triazolo[1,5-a]pyridin-6-yl)amino)-9-(spiro[2.5]octan-6-yl)-7,9-dihydro-8H-purin-8-one]
Mean % CD3^−/GFP+ Cells (n = 3) (T cells [1]; compound 0.0625 uM): 58.13% | Mean % CD3^−/GFP+ Cells (n = 3) (T cells [1]; compound 1 uM): 80.07% | Insertion Percent (Average) (T cells [2]): 67.82% | Mean TRAC Editing % (T cells [3]; sgRNA 0 μg/mL, Spy Cas9 + Compound 4): 0.20% | Mean TRAC Editing % (T cells [3]; sgRNA 0.026 μg/mL, Spy Cas9 + Compound 4): 48.55% | Mean TRAC Editing % (T cells [3]; sgRNA 0.052 μg/mL, Spy Cas9 + Compound 4): 63.45% | Mean TRAC Editing % (T cells [3]; sgRNA 0.104 μg/mL, Spy Cas9 + Compound 4): 79.25% | Mean TRAC Editing % (T cells [3]; sgRNA 0.209 μg/mL, Spy Cas9 + Compound 4): 89.00% | Mean TRAC Editing % (T cells [3]; sgRNA 0.418 μg/mL, Spy Cas9 + Compound 4): 94.45% | Mean TRAC Editing % (T cells [3]; sgRNA 0.835 μg/mL, Spy Cas9 + Compound 4): 96.15% | Mean TRAC Editing % (T cells [3]; sgRNA 1.67 μg/mL, Spy Cas9 + Compound 4 (2 μM stock, 25 μL added)): 96.10% | Sites Validated (TRAC): 0 | Mean percent editing at AAVS1 (NK cells; DNA-PKI 0.125 uM): 96.77% | Mean percent editing at AAVS1 (NK cells; DNA-PKI 0.5 uM): 97.67% | Sites Validated (TRBC): 0 | Mean CD3^+ Vβ7.2^+ T Cells % (T cells [4]; sgRNA 0 μg/mL): 0.79% | Mean CD3^+ Vβ7.2^+ T Cells % (T cells [4]; sgRNA 0.026 μg/mL): 35.20% | Mean CD3^+ Vβ7.2^+ T Cells % (T cells [4]; sgRNA 0.052 μg/mL): 44.50% | Mean CD3^+ Vβ7.2^+ T Cells % (T cells [4]; sgRNA 0.104 μg/mL): 52.60% | Mean CD3^+ Vβ7.2^+ T Cells % (T cells [4]; sgRNA 0.209 μg/mL): 56.10% | Mean CD3^+ Vβ7.2^+ T Cells % (T cells [4]; sgRNA 0.418 μg/mL): 53.80% | Mean CD3^+ Vβ7.2^+ T Cells % (T cells [4]; sgRNA 0.835 μg/mL): 53.30% | Mean CD3^+ Vβ7.2^+ T Cells % (T cells [4]; sgRNA 1.67 μg/mL): 49.65% | Unintended Structural Variance (Average) (T cells [5]): 1.46%

— patent publication US20240300977A1, “INHIBITORS OF DNA-DEPENDENT PROTEIN KINASE AND COMPOSITIONS AND USES THEREOF” (Intellia Therapeutics, Inc., priority 2021, published 2024)
